Measured values: US20140274684A1, “Compounds, Compositions, and Methods for Altering Behavior of Insects Or Other Organisms” (BAYER CROPSCIENCE LP, priority 2013, published 2014)

System: honeybees
Experiment: honeybee repulsion experiment at feeding stations with 50% sucrose
Assay type: in vivo
Details: 2% by weight in 50% sucrose
Method: FIG. 1 describes the feeding station arrangement (A and B) for the honeybee repulsion experiments described herein. As set forth in FIG. 1, panel (A) sets forth the bee cage positions on the left portion of panel (A) with the randomized feeding station positions on the right portion of panel (A). Panel (B) sets forth an alignment of the randomized feeding station positions with a distance of two meters between feeding stations. A total of eight feeding stations were evaluated at a ten meter distance in front of the respective bee hives. The feeding stations were placed two meters apart from one another.
Honeybees were trained to deep feeders (eight positions), each containing a 50% sucrose solution for one day. After the honeybees were trained to each feeder, the 50% sucrose feeder at randomized positions 1-8 was replaced with a shallow feeder containing a combination of repelling compounds and a 50% sucrose solution according to Table 5. In accordance with FIGS. 5 and 6, 2% by weight of Camphor oil (T4), Ajowan oil (T5), Camphor powder (T6), Rosemary oil (T7), and 2-Decanone (T8) in combination with a 50% sucrose treatment were added to feeders on day two.
Table 5 describes active agents evaluated for bee repulsion and their randomized feeding station positions. As described in Table 5, T1 (control), T2 (control), T3 (control), T4 (Camphor oil), T5 (Ajowan oil), T6 (Camphor powder), T7 (Rosemary oil), and T8 (2-Decanone).
FIG. 5 evaluates the number of bees visiting a respective feed station over a time interval. FIG. 6 sets forth the mean number of honeybees visiting feeding station over a period of four hours.

**Q.** `CCCCCCCCC(C)=O` [2-Decanone, 2-decanone] was tested. Which “repellency to honeybees visiting feeding station” value (from here on “repellency”) (at/after 24 hours) did it give?
**A.** The value was “exhibited repellency”.

**Q.** What about the “repellency” value (at/after 24 hours, listed as 2-decanone) of the same compound?
**A.** The value was “still repellent”.

**Q.** What about the “repellency” value (full 4 hour assessment period) of the same compound?
**A.** The value was “highly repellent”.
